The source of these data is US8912188B2, “Substituted quinoxaline carboxylic acids for the inhibition of PASK” (BioEnergenix, LLC, priority 2011, dated 2014).

The target of the test is T1, PASK (Invitrogen) (Homo sapiens, UniProt Q96RG2).
T1 construct: IC50 Kinase Domain; purchased Invitrogen
T1 sequence (Q96RG2 999-1251 limits assumed): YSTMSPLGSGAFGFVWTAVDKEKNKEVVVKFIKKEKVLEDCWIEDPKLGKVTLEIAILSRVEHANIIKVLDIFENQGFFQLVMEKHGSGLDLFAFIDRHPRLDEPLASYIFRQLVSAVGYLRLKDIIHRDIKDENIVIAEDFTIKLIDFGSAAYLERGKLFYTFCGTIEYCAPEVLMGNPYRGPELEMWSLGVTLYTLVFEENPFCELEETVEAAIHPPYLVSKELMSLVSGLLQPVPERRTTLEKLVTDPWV
The test can be described thus: PAS Kinase FRET Assay. The class given is biochemical. As to conditions: PAS kinase TR-FRET assay (665 nm/615 nm), 2 hours at 25° C.; read-out: IC50 Kinase Domain. The text has this: Biochemical Assay for hPASK Activity
The aim of the FRET assay is to determine the inhibition potential of test compounds on targeted kinase. This assay platform provides a homogenous screening method for measuring kinase activity by quantitating the amount of phospho-substrate in solution following a kinase reaction.
In the presence of kinase and ATP, the Ulight-peptide is phosphorylated and captured by an anti-phospho-substrate antibody, which brings the Eu chelate donor and Ulight acceptor dyes into close proximity.
Titration of kinase at 1 mM ATP was achieved via the following protocol. […] The contents of the plate were incubated at RT for 1 h. The reaction was stopped by adding 5 μl of stop solution to each test well followed by mixing and incubation at RT for 10 minutes. 5 μl of detection mix (detection antibody diluted in detection buffer) was added; the contents of the plate were mixed and then incubated in the dark for 1 hour at RT. […] The results were graphed to calculate the EC50.
Titration of ATP at the EC50 concentration of kinase to determine ATP Km,app. was performed using the following method. […] The contents of the plate were and incubated at RT for 1 h. The reaction was stopped by adding 5 μl of stop solution to each test well followed by mixing and incubation at RT for 10 minutes. […] (detection antibody diluted in detection buffer) was added; the contents of the plate were mixed and then incubated in the dark for 1 hour at RT. […] The results were graphed to calculate the EC50 as the ATP Km,app.
Compound screening was done via the following method. 10 mM stock solution of test compound in DMSO was prepared by dissolving test compound in DMSO at RT for 1 hour, and then sonicating at 100% output for 8 minutes. If compound is not soluble under this condition, it was diluted to 3 mM. Kinase reaction buffer was prepared containing 10 mM MgCl2, 50 mM HEPES, 1 mM EGTA, 0.01% TWEEN-20, 2 mM DTT. […] As a positive control, 2.5 μl of positive compound was added to assay wells, and 2.5 μl of DMSO to assay wells as vehicle control. Kinase solution was prepared in reaction buffer at 2× final assay concentration. Kinase solution (5 μl) was added to each well of the assay plate. The substrate and ATP solution was prepared in kinase reaction buffer at 4× final assay concentration. The kinase reaction was started by adding 2.5 μl of substrate+ATP mix solution to each well of the assay plate. The plate is mixed on a plate shaker; then covered and allowed to react for 2 hours in the dark at 25° C. without shaking. The reaction was stopped by adding 5 μl of stop solution to each test well followed by mixing and incubation at RT for 10 minutes in the dark. 5 μl of detection mix (detection antibody diluted in detection buffer) was added; the contents of the plate were mixed and then incubated in the dark for 1 hour at RT.
As to `C[C@H]1CCCN1c1nc2cc(C(=O)O)ccc2nc1-c1ccc2[nH]ncc2c1` [Example 47, 2-(1H-Indazol-5-yl)-3-[(2S)-2-methylpyrrolidin-1-yl]quinoxaline-6-carboxylic acid], the IC50 (usually the concentration needed to halve the response being measured) was less than 10 µM.

Consider `CC(C)N(C)c1nc2cc(C(=O)O)ccc2nc1-c1ccnc(F)c1` [Example 11, 2-(2-Fluoropyridin-4-yl)-3-(isopropyl(methyl)amino)quinoxaline-6-carboxylic acid], for which the IC50 was less than 10 µM.

As to `C[C@H]1CNCCN1c1nc2cc(C(=O)O)ccc2nc1-c1ccc(F)cc1` [Example 114, 2-(4-Fluorophenyl)-3-[(2S)-2-methylpiperazin-1-yl]quinoxaline-6-carboxylic acid], the IC50 is less than 10 µM.

With `CC(C)N(C)c1nc2cc(C(=O)O)ccc2nc1-c1ccc(N)nc1` [Example 16, 2-(6-Aminopyridin-3-yl)-3-(isopropyl(methyl)amino)quinoxaline-6-carboxylic acid], the IC50 is less than 10 µM.

With `CC(C)N(C)c1nc2cc(C(=O)O)ccc2nc1-c1cc2cc(F)c(F)cc2o1` [Example 33, 2-(5,6-Difluorobenzofuran-2-yl)-3-(isopropyl(methyl)amino)quinoxaline-6-carboxylic acid], the IC50 was less than 10 µM.

With `CC(C)(C)Nc1nc2cc(C(=O)O)ccc2nc1-c1ccc(F)cc1` [Example 110, 3-(tert-Butylamino)-2-(4-fluorophenyl)quinoxaline-6-carboxylic acid], the IC50 was less than 10 µM.

For `CC(C)CN(C)c1nc2cc(C(=O)O)ccc2nc1-c1ccc(F)cc1` [Example 141, 2-(4-Fluorophenyl)-3-(isobutyl(methyl)amino)quinoxaline-6-carboxylic acid], the IC50 was less than 10 µM.

As to `CCN1CCN(c2nc3cc(C(=O)O)ccc3nc2-c2ccc(F)cc2)[C@@H](C)C1` [Example 138, (S)-3-(4-Ethyl-2-methylpiperazin-1-yl)-2-(4-fluorophenyl)quinoxaline-6-carboxylic acid], the IC50 was less than 10 µM.

For `CC(C)N(C)c1nc2cc(C(=O)O)ccc2nc1-c1ccc(C(F)(F)F)cc1` [Example 136, 3-(Isopropyl(methyl)amino)-2-(4-(trifluoromethyl)phenyl)quinoxaline-6-carboxylic acid], the IC50 is less than 10 µM.

`C[C@H]1CCCN1c1nc2cc(C(=O)O)ccc2nc1-c1nc2ccccc2s1` [Example 59, 2-(1,3-Benzothiazol-2-yl)-3-[(2S)-2-methylpyrrolidin-1-yl]quinoxaline-6-carboxylic acid]: the IC50 is less than 10 µM.

On to `CCCN(CC)c1nc2cc(C(=O)O)ccc2nc1-c1ccc(F)cc1` [Example 139, 3-[Ethyl(propyl)amino]-2-(4-fluorophenyl)quinoxaline-6-carboxylic acid], for which the half-inhibitory concentration (IC50) was less than 10 µM.

In the case of `CC(C)N(C)c1nc2cc(C(=O)O)ccc2nc1-c1cnn(-c2ccccc2)c1` [Example 91, 3-[Methyl(propan-2-yl)amino]-2-(1-phenyl-1H-pyrazol-4-yl)quinoxaline-6-carboxylic acid], the IC50 was less than 10 µM.

`O=C(O)c1ccc2nc(-c3ccc(F)cc3)c(N3CCC3)nc2c1` [Example 145, 3-(Azetidin-1-yl)-2-(4-fluorophenyl)quinoxaline-6-carboxylic acid]: the half-inhibitory concentration (IC50) was less than 10 µM.

Turning to `C[C@H]1CCCN1c1nc2cc(C(=O)O)ccc2nc1-c1ccoc1` [Example 78, 2-(Furan-3-yl)-3-[(2S)-2-methylpyrrolidin-1-yl]quinoxaline-6-carboxylic acid], the IC50 was less than 10 µM.

Take `CN[C@H]1CC[C@H](N(C)c2nc3cc(C(=O)O)ccc3nc2-c2ccc(F)cc2)CC1` [Example 126, 2-(4-Fluorophenyl)-3-(methyl((1r,4r)-4-(methylamino)cyclohexyl)amino)quinoxaline-6-carboxylic acid]: the IC50 is less than 10 µM.

With `CC(C)N(C)c1nc2cc(C(=O)O)ccc2nc1-c1ccc2c(cnn2C)c1` [Example 25, 3-(Isopropyl(methyl)amino)-2-(1-methyl-1H-indazol-5-yl)quinoxaline-6-carboxylic acid], the IC50 was less than 10 µM.
